Experimental findings from patent US9574176B2 (priority 2012, dated 2017) are described below.

The subject of test [1] is nerve cells differentiated from NVDCC-deficient mouse hippocampus-derived neural stem cells. Format: cell-based.
The subject of test [2] is NVDCC-deficient mouse-derived neural stem cells. Format: cell-based.
The next test relates to muscarinic receptor. Type of test: cell-based, mouse.

As to `Nc1ccncc1` [4-AP, 4-aminopyridine], in test [1], the “activity potential of the differentiated neurons (spike frequency)” value was “significantly increased”.

As for `CC1=C(/C=C/C(C)=C/C=C/C(C)=C/C(=O)O)C(C)(C)CCC1` [ATRA, all-trans retinoic acid], the differentiation on induction entry in test [2] is listed as “most cells differentiated into MAP2 (microtubule-associated protein 2)-positive nerve cells”.

`C[C@@H]1O[C@H](C[N+](C)(C)C)C[C@H]1O` [muscarine]: in the test with muscarinic receptor, the “reaction of differentiated neurons (calcium fluorescence)” value was “reacted”.

As for `CN1CCCC1c1cccnc1` (centres unmarked) [nicotine], the “reaction of differentiated neurons (calcium fluorescence)” value with nicotinic receptor was “reacted”.

Regarding tetradotoxin [TTX], the “activity potential of the differentiated neurons (spike frequency)” value in test [1] is “suppressed”.
